The values below come from paper PMC8522752 (Antimicrobial Agents and Chemotherapy, 2021).

Molecules are shown by their SMILES. Read-outs that look alike come from different tables or passages of the source.

The target of series [1] is DENV NS5 protein (serotype 2) (Dengue virus type 2, UniProt P14340). Description: Nucleotide analogue incorporation / RNA elongation assay. Format: biochemical, dengue virus serotype 2. Conditions: for effect on RNA synthesis after incorporation: P10/T20 primer-template, with or without GTP.
Series [2] in a line: Plasma pharmacokinetics in cynomolgus monkeys after oral AT-752. As to conditions: male, cynomolgus, cynomolgus monkey, in vivo, po, 300 mg/kg.
Series [3] can be described thus: Plasma pharmacokinetics in CD-1 mice after oral AT-752. As to conditions: male, CD-1, mouse, in vivo, 420 mg/kg.
The nature of series [4]: Plasma pharmacokinetics in Sprague Dawley rats after oral AT-752. Conditions: male, Sprague Dawley, rat, in vivo, po, 300 mg/kg.
Series [5] concerns human mitochondrial DNA-directed RNA polymerase (POLRMT). Conditions: cited from earlier work.
The conditions of series [6]: monkeys, single oral dose of AT-752 equivalent to 55 mg/kg AT-281, 12 h.
For series [7], the target named is human cellular DNA-dependent DNA polymerase γ. As to conditions: read-out: estimated IC50; cited from earlier work.
The target of series [8] is human cellular DNA-dependent DNA polymerase β. Conditions: read-out: estimated IC50; cited from earlier work.
For series [9] the following is noted: mice, single oral dose AT-281 50 mg/kg, 12 h, pooled from 3 animals.
For series [10] the following is noted: rats, single oral dose AT-281 300 mg/kg, 24 h.
The target of series [11] is human cellular DNA-dependent DNA polymerase α. Conditions: read-out: estimated IC50; cited from earlier work.
Another series concerns DENV. Also noted: method as in PMID 22807519. Conditions: cited from earlier work.
Series [12] in a line: Cardiomyocyte assay (CellTiter Glo). The class given is cell-based. As to conditions: human iPS cardiomyocytes. In general terms: Cellular ATP, detected with luciferase, serves as a proxy for viable cell number.

The AUC(0-t) is the area under the concentration-time curve up to a stated or last time point. A lower AUC(0-t) goes with low exposure. The Cmax is the highest concentration seen after dosing. The term Tmax denotes the time from dosing to the highest level. As a reminder, the IC50 is the midpoint of a concentration-inhibition curve. For orientation: CC50 means the concentration at which the toxic effect on the cells reaches its halfway point. A high value points to lower toxicity to the cells.

Take `Nc1nc2c(ncn2[C@@H]2O[C@H](COP(=O)(O)OP(=O)(O)OP(=O)(O)O)C[C@H]2O)c(=O)[nH]1` [3′-dGTP, reference compound]: the “effect on RNA synthesis after incorporation” value in series [1] was “equivalent profile”.
With `C[C@@]1(F)[C@H](O)[C@@H](CO)O[C@H]1n1cnc2c(=O)[nH]c(N)nc21` [AT-273, 2′-fluoro-2′-C-methyl guanosine], the area under the curve AUC(0-t) came out at 7.8 ± 2.4 µM·h in [2], 18.8 ± 6 µM·h in series [3] and 22.9 µM·h in series [4]. For the same compound, the Cmax in series [2] turned out to be 0.8 ± 0.2 µM; in [3], 2.3 ± 0.7 µM; in [4] it was 1.3 ± 0.3 µM. Also, the “plasma AT-273 concentration” value is, setting by setting: (CD-1, mouse, in vivo) 1.35 ± 0.86 nmol/mL; (mice, AT-281 1,000 mg/kg loading then 500 mg/kg BID 3 days, 12 h after the first 500-mg/kg dose) 0.67 ± 0.12 nmol/mL. The Tmax in series [4] was 8 h.
Regarding `CNc1nc(N)nc2c1ncn2[C@@H]1O[C@H](CO[P@](=O)(O)N[C@@H](C)C(=O)O)[C@@H](O)[C@@]1(C)F` [AT-551], in series [2], the AUC(0-t) was 9.7 ± 2.2 µM·h, the highest level (Cmax) was 2 ± 0.8 µM and the time to peak (Tmax) amounted to 2 h. Moreover, in [3], the AUC(0-t) came to 58.7 ± 13.3 µM·h, the highest level (Cmax) was 45.1 ± 12 µM and the Tmax came out at 0.5 h. In [4], this compound gave an AUC(0-t) of 56.5 µM·h and a Cmax of 16.5 ± 10.8 µM.
As for `C[C@@]1(F)[C@H](O)[C@@H](COP(=O)(O)OP(=O)(O)OP(=O)(O)O)O[C@H]1n1cnc2c(=O)[nH]c(N)nc21` [AT-9010], the “effect on mitochondrial integrity / inhibition of POLRMT” value in series [5] is recorded as “not likely to affect mitochondrial integrity or inhibit human mitochondrial DNA-directed RNA polymerase”. Moreover, the “AT-9010 concentration in PBMCs” value in [6] is recorded as 0.070 ± 0.046 pmol/10^6 cells; the “AT-9010 concentration in PBMCs” value (mice, 500 mg/kg AT-281 then 250 mg/kg 4 h later, 4 h after the second dose) stood at 0.297 pmol/10^6 cells; the “AT-9010 concentration in PBMCs” value in series [9] came to 0.092 pmol/10^6 cells; the “AT-9010 concentration in PBMCs” value in [10] is 0.439 ± 0.218 pmol/10^6 cells. Also, the IC50 in series [7], in series [8] and in [11] was > 100 µM throughout. In addition, the “effect on RNA synthesis after incorporation” value in series [1] is listed as “immediate chain termination of RNA synthesis”. The “discrimination factor (preference for GTP > AT-9010)” value in [1] (all four NTPs present, band product intensities at +5 and +7 positions) turned out to be 12.6 ± 4.3.
For `CC(C)C(=O)OC[C@@]1(N=[N+]=[N-])O[C@@H](n2ccc(N)nc2=O)[C@H](OC(=O)C(C)C)[C@@H]1OC(=O)C(C)C` [balapiravir], in the series on DENV, the “viremia in patients infected with DENV” value is recorded as “failed to reduce viremia”. In addition, the “antiviral response, cytokine profile and time to fever clearance vs placebo” value in the series with DENV (tested clinically) is “no differences between compound and placebo treatment were observed”.
In series [12], `COc1cc2nc(N3CCN(C(=O)C4COc5ccccc5O4)CC3)nc(N)c2cc1OC` (stereo not shown) [doxazosin, reference compound] gave a CC50 at 3 days of 7 µM.
